Values quoted from earlier work in patent US8470822B2, “Folate mimetics and folate-receptor binding conjugates thereof” (Purdue Research Foundation, priority 2001, dated 2013).

System: high-affinity folate receptor
Conditions: 2 μM pteroic acid (100-fold excess); cited from earlier work

Nc1nc2ncc(CNc3ccc(C(=O)O)cc3)nc2c(=O)[nH]1 [pteroic acid]
effect on the binding of folate to the folate receptor: absolutely no effect
